# B1: RNase: ribonuclease, enzyme that hydrolyzes RNA; RNase A used at 10 μg/ml (protein, UniProt P61823 27-150, looked up)
# Ribonuclease pancreatic: KETAAAKFERQHMDSSTSAASSSNYCNQMMKSRNLTKDRCKPVNTFVHESLADVQAVCSQKNVACKNGQTNCYQSYSTMSITDCRETGSSKYPNCAYKTTQANKHIIVACEGNPYVPVHFDASV
# Legend:
# Assay type in all cases: cell-based
# bacteriophage MS2 [1] = assay: Inactivation of bacteriophage MS2 in human blood plasma by pressure cycling and 1-(2-aminoethyl)aziridine (plaque assay on E. coli)
# [2] = test system: Feline rhinotrachetis virus; assay: Inactivation of feline rhinotrachetis virus in human blood plasma by pressure and HMT with UV (plaque assay on feline cells Fc3Tg)
# Method: The infectivity of the virus suspension is determined by duplicate plaque assays on cultured feline cells, Fc3Tg (ATCC CCL 176) with a methylcellulose overlay. The sample is split into four aliquots and are treated as follows: 1) aliquot 1—no treatment; […] 4) aliquot 4—nothing added and pressurized to 30,000 psi for 10 minutes. All samples are held at a temperature of 25° C. throughout the experiment. After treatment, the plasma is serially diluted, mixed with cultured feline cells and plated on agar.
# [3] = test system: Feline rhinotrachetis virus; assay: Inactivation of feline rhinotrachetis virus in human blood plasma by pressure cycling and S-59 with UV (plaque assay on feline cells)
# SV 40 = assay: Inactivation of SV 40 in human blood plasma by pressure cycling and DNase (plaque assay on primate cells)
# bacteriophage MS2 [4] = assay: Inactivation of bacteriophage MS2 in human blood plasma by pressure and RNase (plaque assay on E. coli)
molecule,measurement,setting,value
NCCN1CC1 [1-(2-aminoethyl)aziridine],"reduction in viral titer, combination with pressure cycling versus sum of the reductions of the single treatments","bacteriophage MS2 [1]; 0.007 M 1-(2-aminoethyl)aziridine, 80,000 psi for 10 minutes, 20 cycles, 25° C., human blood plasma, 10^8 pfu per ml MS2",significantly greater reduction in viral titer
same,viral inactivation under pressure cycling at lower concentrations,"bacteriophage MS2 [1]; similar experiments with lower concentrations of 1-(2-aminoethyl)aziridine, with pressure cycling",equivalent viral inactivation with lower concentrations of 1-(2-aminoethyl)aziridine or with shorter incubation time
"Cc1oc2c(C)c3oc(=O)cc(C)c3cc2c1CO [HMT, 4′-hydroxymethyl-4,5′,8-trimethylpsoralen]","reduction in viral titer, combination with pressure versus sum of the reductions of the single treatments","[2]; 20 μg/ml HMT, 30,000 psi for 10 minutes, then longwave UV light (320 to 380 nm) 10 minutes, 25° C., human blood plasma, 2×10^7 pfu per ml",significantly greater reduction in viral titer
same,viral inactivation under pressure at lower concentrations,"[2]; similar experiments with lower concentrations of HMT, with pressure",equivalent viral inactivation with lower concentrations
"Cc1oc2c(C)c3oc(=O)cc(C)c3cc2c1COCCN [S-59, 4′-(4-amino-2-oxa)butyl-4,5′,8-trimethylpsoralen]","reduction in viral titer, combination with pressure cycling versus sum of the reductions of the single treatments","[3]; 150 μM S-59, longwave UV light 10 minutes, 90,000 psi for 5 minutes, 24 cycles, then UV ten minutes, 25° C., human blood plasma, 2×10^7 pfu per ml",significantly greater reduction in viral titer
same,viral inactivation under pressure cycling at lower concentrations,"[3]; similar experiments with lower concentrations of S-59, with pressure cycling",equivalent viral inactivation with lower concentrations
DNase,"reduction in viral titer, combination with pressure cycling versus sum of the reductions of the single treatments","SV 40; 20 μg/ml DNase I, 90,000 psi for 10 minutes, 25 cycles, 37° C., human blood plasma, 10^8 pfu per ml SV 40",significantly greater reduction in viral titer
same,viral inactivation under pressure cycling at lower concentrations,"SV 40; similar experiments with lower concentrations of DNase, with pressure cycling",equivalent viral inactivation with lower concentrations of DNase or with shorter incubation time
B1,"reduction in viral titer, combination with pressure versus sum of the reductions of the single treatments","bacteriophage MS2 [4]; 10 μg/ml RNase A, 25,000 psi for 20 minutes, 37° C., human blood plasma, 10^8 pfu per ml MS2",significantly greater reduction in viral titer
same,viral inactivation under pressure at lower concentrations,"bacteriophage MS2 [4]; similar experiments with lower concentrations of RNase, with pressure",equivalent viral inactivation with lower concentrations of RNase or with shorter incubation time
